{
  "source": "the supplement of paper PMC10307832",
  "test_in_all_cases": "relative viability (nuclei count vs DMSO), 5 days (fraction); higher = more cells survive",
  "key": {"[1]": {"compound": "CN(c1ncccc1CNc1nc(Nc2ccc3c(c2)CC(=O)N3)ncc1C(F)(F)F)S(C)(=O)=O", "outline": "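Acceptance criteria were a control CV below 25% and at least one doubling per plate. Lung cancer cell lines in 1536-well plates got five library-drug doses (not always all listed) √10 apart by pinning and were left 5 days with no medium change. Viability divides treated-well nuclei by vehicle-well nuclei and is the median across plates. Nuclei were counted by MetaXpress from 4× Hoechst images.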"}, "[2]": {"compound": "CN(c1ncccc1CNc1nc(Nc2ccc3c(c2)CC(=O)N3)ncc1C(F)(F)F)S(C)(=O)=O + CC(C)C[C@H](NC(=O)[C@H](Cc1ccccc1)NC(=O)c1cnccn1)B(O)O [Bortezomib] (partner 0.002 µM)", "outline": "(§1)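 Lung cancer cell lines, seeded in 1536-well plates, were treated the following day by pin tool with a single drug or with five library-drug doses (not always all listed) in √10 steps on top of a fixed anchor-drug dose. Cells were fixed and nuclei stained in one step after 5 days, and nuclei were counted. Relative viability is the nuclei count for treated wells divided by that for vehicle wells, reported as medians of duplicate plates.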"}, "[3]": {"compound": "CN(c1ncccc1CNc1nc(Nc2ccc3c(c2)CC(=O)N3)ncc1C(F)(F)F)S(C)(=O)=O + CC1(C)CCC(c2ccc(Cl)cc2)=C(CN2CCN(c3ccc(C(=O)NS(=O)(=O)c4ccc(N[C@H](CCN5CCOCC5)CSc5ccccc5)c(S(=O)(=O)C(F)(F)F)c4)cc3)CC2)C1 [Navitoclax] (partner 0.5 µM)", "outline": "as §1"}, "[4]": {"compound": "CN(c1ncccc1CNc1nc(Nc2ccc3c(c2)CC(=O)N3)ncc1C(F)(F)F)S(C)(=O)=O + COc1cc2c(Oc3ccc(NC(=O)C4(C(=O)Nc5ccc(F)cc5)CC4)cc3F)ccnc2cc1OCCCN1CCOCC1 [Foretinib] (partner 0.25 µM)", "outline": "as §1"}, "[5]": {"compound": "CN(c1ncccc1CNc1nc(Nc2ccc3c(c2)CC(=O)N3)ncc1C(F)(F)F)S(C)(=O)=O + CS(=O)(=O)CCNCc1ccc(-c2ccc3ncnc(Nc4ccc(OCc5cccc(F)c5)c(Cl)c4)c3c2)o1 [Lapatinib] (partner 2 µM)", "outline": "as §1"}, "[6]": {"compound": "CN(c1ncccc1CNc1nc(Nc2ccc3c(c2)CC(=O)N3)ncc1C(F)(F)F)S(C)(=O)=O + CS(=O)(=O)N1CCN(Cc2cc3nc(-c4cccc5[nH]ncc45)nc(N4CCOCC4)c3s2)CC1 [Pictilisib] (partner 1 µM)", "outline": "as §1"}, "[7]": {"compound": "CN(c1ncccc1CNc1nc(Nc2ccc3c(c2)CC(=O)N3)ncc1C(F)(F)F)S(C)(=O)=O + C[C@@H](Oc1cc(-c2cnn(C3CCNCC3)c2)cnc1N)c1c(Cl)ccc(F)c1Cl [Crizotinib] (partner 1 µM)", "outline": "as §1"}, "[8]": {"compound": "CN(c1ncccc1CNc1nc(Nc2ccc3c(c2)CC(=O)N3)ncc1C(F)(F)F)S(C)(=O)=O + C[C@]1(O)C[C@@H](c2nc(-c3ccc4ccc(-c5ccccc5)nc4c3)c3c(N)nccn32)C1 [Linsitinib] (partner 1 µM)", "outline": "as §1"}, "[9]": {"compound": "CN(c1ncccc1CNc1nc(Nc2ccc3c(c2)CC(=O)N3)ncc1C(F)(F)F)S(C)(=O)=O + Cc1nc(NC(=O)N2CCC[C@H]2C(N)=O)sc1-c1ccnc(C(C)(C)C(F)(F)F)c1 [Alpelisib] (partner 2 µM)", "outline": "as §1"}, "[10]": {"compound": "CN(c1ncccc1CNc1nc(Nc2ccc3c(c2)CC(=O)N3)ncc1C(F)(F)F)S(C)(=O)=O + O=C(c1cc(Cc2n[nH]c(=O)c3ccccc23)ccc1F)N1CCN(C(=O)C2CC2)CC1 [Olaparib] (partner 8 µM)", "outline": "as §1"}},
  "data": [
    {"cell line": "NCI-H1299", "values": [
      {"measurement": "relative viability", "setting": "[1]; 0.01 µM", "value": 1.02},
      {"measurement": "relative viability", "setting": "[1]; 0.03162 µM", "value": 1.04},
      {"measurement": "relative viability", "setting": "[1]; 0.1 µM", "value": 1.04},
      {"measurement": "relative viability", "setting": "[1]; 0.3162 µM", "value": 0.986},
      {"measurement": "relative viability", "setting": "[1]; 1 µM", "value": 1.01},
      {"measurement": "relative viability", "setting": "[2]; first compound 0.01 µM", "value": 1.05},
      {"measurement": "relative viability", "setting": "[2]; first compound 0.03162 µM", "value": 1.01},
      {"measurement": "relative viability", "setting": "[2]; first compound 0.1 µM", "value": 1.04},
      {"measurement": "relative viability", "setting": "[2]; first compound 0.3162 µM", "value": 0.996},
      {"measurement": "relative viability", "setting": "[2]; first compound 1 µM", "value": 1.02},
      {"measurement": "relative viability", "setting": "[3]; first compound 0.01 µM", "value": 1.04},
      {"measurement": "relative viability", "setting": "[3]; first compound 0.03162 µM", "value": 1.05},
      {"measurement": "relative viability", "setting": "[3]; first compound 0.1 µM", "value": 1.06},
      {"measurement": "relative viability", "setting": "[3]; first compound 0.3162 µM", "value": 1.07},
      {"measurement": "relative viability", "setting": "[3]; first compound 1 µM", "value": 1.04},
      {"measurement": "relative viability", "setting": "[4]; first compound 0.01 µM", "value": 1.12},
      {"measurement": "relative viability", "setting": "[4]; first compound 0.03162 µM", "value": 1.1},
      {"measurement": "relative viability", "setting": "[4]; first compound 0.1 µM", "value": 1.05},
      {"measurement": "relative viability", "setting": "[4]; first compound 0.3162 µM", "value": 1.09},
      {"measurement": "relative viability", "setting": "[4]; first compound 1 µM", "value": 1.08},
      {"measurement": "relative viability", "setting": "[5]; first compound 0.01 µM", "value": 1.03},
      {"measurement": "relative viability", "setting": "[5]; first compound 0.03162 µM", "value": 0.949},
      {"measurement": "relative viability", "setting": "[5]; first compound 0.1 µM", "value": 1},
      {"measurement": "relative viability", "setting": "[5]; first compound 0.3162 µM", "value": 0.988},
      {"measurement": "relative viability", "setting": "[5]; first compound 1 µM", "value": 0.972},
      {"measurement": "relative viability", "setting": "[6]; first compound 0.01 µM", "value": 0.754},
      {"measurement": "relative viability", "setting": "[6]; first compound 0.03162 µM", "value": 0.768},
      {"measurement": "relative viability", "setting": "[6]; first compound 0.1 µM", "value": 0.809},
      {"measurement": "relative viability", "setting": "[6]; first compound 0.3162 µM", "value": 0.739},
      {"measurement": "relative viability", "setting": "[6]; first compound 1 µM", "value": 0.693},
      {"measurement": "relative viability", "setting": "[7]; first compound 0.01 µM", "value": 0.989},
      {"measurement": "relative viability", "setting": "[7]; first compound 0.03162 µM", "value": 1.02},
      {"measurement": "relative viability", "setting": "[7]; first compound 0.1 µM", "value": 0.979},
      {"measurement": "relative viability", "setting": "[7]; first compound 0.3162 µM", "value": 0.995},
      {"measurement": "relative viability", "setting": "[7]; first compound 1 µM", "value": 0.955},
      {"measurement": "relative viability", "setting": "[8]; first compound 0.01 µM", "value": 1.06},
      {"measurement": "relative viability", "setting": "[8]; first compound 0.03162 µM", "value": 1.05},
      {"measurement": "relative viability", "setting": "[8]; first compound 0.1 µM", "value": 0.961},
      {"measurement": "relative viability", "setting": "[8]; first compound 0.3162 µM", "value": 0.976},
      {"measurement": "relative viability", "setting": "[8]; first compound 1 µM", "value": 0.986},
      {"measurement": "relative viability", "setting": "[9]; first compound 0.01 µM", "value": 1.05},
      {"measurement": "relative viability", "setting": "[9]; first compound 0.03162 µM", "value": 1.02},
      {"measurement": "relative viability", "setting": "[9]; first compound 0.1 µM", "value": 1.01},
      {"measurement": "relative viability", "setting": "[9]; first compound 0.3162 µM", "value": 1.04},
      {"measurement": "relative viability", "setting": "[9]; first compound 1 µM", "value": 1.05},
      {"measurement": "relative viability", "setting": "[10]; first compound 0.01 µM", "value": 0.96},
      {"measurement": "relative viability", "setting": "[10]; first compound 0.03162 µM", "value": 1.04},
      {"measurement": "relative viability", "setting": "[10]; first compound 0.1 µM", "value": 0.991},
      {"measurement": "relative viability", "setting": "[10]; first compound 0.3162 µM", "value": 0.948},
      {"measurement": "relative viability", "setting": "[10]; first compound 1 µM", "value": 0.955}
    ]}
  ]
}
